We go through twelve compounds from ChEMBL document CHEMBL5316298, “Discovery of Amphiphilic Xanthohumol Derivatives as Membrane-Targeting Antimicrobials against Methicillin-Resistant Staphylococcus aureus” (J Med Chem, 2023).

The structures appear in SMILES notation. ≈ marks a conversion by molar mass, not a printed value.

The subject of data set [1] is Staphylococcus aureus. Description: Antibacterial activity against Staphylococcus aureus ATCC 29213 incubated for 16 to 18 hrs by CLSI-based microbroth dilution method. It is filed as functional. Conditions: time 16-18 hrs.
Data set [2] deals with Staphylococcus aureus. The data set can be described thus: Antibacterial activity against methicillin-resistant Staphylococcus aureus clinical isolate 1 incubated for 16 to 18 hrs by CLSI-based microbroth dilution method. It is filed as functional. Conditions: time 16-18 hrs.
The subject of data set [3] is Staphylococcus aureus. Description: Antibacterial activity against methicillin-resistant Staphylococcus aureus clinical isolate 2 incubated for 16 to 18 hrs by CLSI-based microbroth dilution method. Conditions: time 16-18 hrs. It is filed as functional.
For data set [4], the system named is Staphylococcus aureus. The data set can be described thus: Antibacterial activity against methicillin-resistant Staphylococcus aureus clinical isolate 3 incubated for 16 to 18 hrs by CLSI-based microbroth dilution method. In kind it is functional. As to conditions: time 16-18 hrs.
Data set [5] deals with Staphylococcus aureus. Description: Antibacterial activity against methicillin-resistant Staphylococcus aureus clinical isolate 4 incubated for 16 to 18 hrs by CLSI-based microbroth dilution method. It is filed as functional. As to conditions: time 16-18 hrs.
The subject of data set [6] is Staphylococcus aureus. The data set can be described thus: Antibacterial activity against methicillin-resistant Staphylococcus aureus clinical isolate 5 incubated for 16 to 18 hrs by CLSI-based microbroth dilution method. As to conditions: time 16-18 hrs. In kind it is functional.
Data set [7] has as its system Staphylococcus aureus. Description: Antibacterial activity against methicillin-resistant Staphylococcus aureus clinical isolate 6 incubated for 16 to 18 hrs by CLSI-based microbroth dilution method. It is filed as functional. As to conditions: time 16-18 hrs.
The test system of data set [8] is Staphylococcus aureus. The data set can be described thus: Antibacterial activity against methicillin-resistant Staphylococcus aureus clinical isolate 7 incubated for 16 to 18 hrs by CLSI-based microbroth dilution method. It is filed as functional. Conditions: time 16-18 hrs.
Data set [9] concerns Staphylococcus aureus. The data set can be described thus: Antibacterial activity against methicillin-resistant Staphylococcus aureus clinical isolate 8 incubated for 16 to 18 hrs by CLSI-based microbroth dilution method. It is filed as functional. As to conditions: time 16-18 hrs.
The subject of data set [10] is Staphylococcus aureus. The data set can be described thus: Antibacterial activity against methicillin-resistant Staphylococcus aureus clinical isolate 9 incubated for 16 to 18 hrs by CLSI-based microbroth dilution method. In kind it is functional. Conditions: time 16-18 hrs.
The test system of data set [11] is Staphylococcus aureus. The data set can be described thus: Antibacterial activity against methicillin-resistant Staphylococcus aureus clinical isolate 10 incubated for 16 to 18 hrs by CLSI-based microbroth dilution method. As to conditions: time 16-18 hrs. In kind it is functional.
A short description of data set [12]: Hemolytic activity in sheep erythrocytes incubated for 1 hr by absorbance based analysis. It is filed as toxicity, cell-based, Ovis aries, Erythrocyte.

Turning to `COc1cc2c(c(O)c1C(=O)/C=C/c1ccc(OCCC[N+](C)(C)CC(=O)N(CC(C)C)CC(C)C)cc1)C=CC(C)(C)O2.[Br-]`, the MIC worked out at 2 µg/mL against Staphylococcus aureus [1]; 2 µg/mL in the data set with Staphylococcus aureus [2]; 4 µg/mL in the data set on Staphylococcus aureus [3]; 1 µg/mL against Staphylococcus aureus [4]; 2 µg/mL against Staphylococcus aureus [5]; 1 µg/mL against Staphylococcus aureus [6]. Also, the MIC against Staphylococcus aureus [7] is 1 µg/mL; against Staphylococcus aureus [8] it was 1 µg/mL; in the data set with Staphylococcus aureus [9] it was 2 µg/mL; against Staphylococcus aureus [10], 2 µg/mL; in the data set with Staphylococcus aureus [11], 4 µg/mL. Further, the HC50 at 1 h in data set [12] is 447 µg/mL.
On to `CCCNC(=O)C[N+](C)(C)CCCCCOc1ccc(/C=C/C(=O)c2c(OC)cc3c(c2O)C=CC(C)(C)O3)cc1.[Br-]`, for which the minimal inhibitory concentration (MIC) in the data set on Staphylococcus aureus [1] is 4 µg/mL; against Staphylococcus aureus [2], 2 µg/mL; in the data set with Staphylococcus aureus [3], 8 µg/mL; against Staphylococcus aureus [4], 2 µg/mL; in the data set on Staphylococcus aureus [5], 2 µg/mL; in the data set with Staphylococcus aureus [6], 1 µg/mL. The MIC with Staphylococcus aureus [7] turned out to be 1 µg/mL; with Staphylococcus aureus [8], 2 µg/mL; against Staphylococcus aureus [9], 2 µg/mL; against Staphylococcus aureus [10], 8 µg/mL; against Staphylococcus aureus [11], 2 µg/mL. Moreover, in data set [12], the HC50 at 1 h is 974 µg/mL.
Regarding `COc1cc2c(c(O)c1C(=O)/C=C/c1ccc(OCCCCC[N+](C)(C)CC(=O)N(CC(C)C)CC(C)C)cc1)C=CC(C)(C)O2.[Br-]`, the MIC is 2 µg/mL against Staphylococcus aureus [1]; 4 µg/mL against Staphylococcus aureus [2]; 1 µg/mL against Staphylococcus aureus [3]; 2 µg/mL in the data set on Staphylococcus aureus [4]; 2 µg/mL against Staphylococcus aureus [5]; 2 µg/mL in the data set on Staphylococcus aureus [6]. Further, the MIC in the data set on Staphylococcus aureus [7] is 1 µg/mL; with Staphylococcus aureus [8] it was 2 µg/mL; in the data set with Staphylococcus aureus [9], 2 µg/mL; in the data set with Staphylococcus aureus [10], 2 µg/mL; against Staphylococcus aureus [11] it was 2 µg/mL. Also, the HC50 at 1 h in data set [12] stood at 374 µg/mL.
With `COc1cc2c(c(O)c1C(=O)/C=C/c1ccc(OCCC[N+](C)(C)CC(=O)N3CCSCC3)cc1)C=CC(C)(C)O2.[Br-]`, the MIC against Staphylococcus aureus [1] came to 2 µg/mL; in the data set with Staphylococcus aureus [2] it was 4 µg/mL; in the data set with Staphylococcus aureus [3] it was 2 µg/mL; in the data set with Staphylococcus aureus [4], 2 µg/mL; against Staphylococcus aureus [5] it was 4 µg/mL; in the data set on Staphylococcus aureus [6] it was 2 µg/mL. Further, the MIC was found to be 2 µg/mL in the data set with Staphylococcus aureus [7]; 2 µg/mL against Staphylococcus aureus [8]; 2 µg/mL in the data set on Staphylococcus aureus [9]; 2 µg/mL against Staphylococcus aureus [10]; 4 µg/mL in the data set with Staphylococcus aureus [11]. The HC50 at 1 h in data set [12] was found to be 416 µg/mL.
Take `CCCCNC(=O)C[N+](C)(C)CCCCOc1ccc(/C=C/C(=O)c2c(OC)cc3c(c2O)C=CC(C)(C)O3)cc1.[Br-]`: the MIC in the data set on Staphylococcus aureus [1] was 4 µg/mL; against Staphylococcus aureus [2] it was 2 µg/mL; in the data set on Staphylococcus aureus [3], 2 µg/mL; in the data set with Staphylococcus aureus [4] it was 2 µg/mL; with Staphylococcus aureus [5], 2 µg/mL; in the data set with Staphylococcus aureus [6], 2 µg/mL. The MIC was found to be 2 µg/mL against Staphylococcus aureus [7]; 2 µg/mL in the data set with Staphylococcus aureus [8]; 4 µg/mL with Staphylococcus aureus [9]; 2 µg/mL against Staphylococcus aureus [10]; 4 µg/mL in the data set on Staphylococcus aureus [11]. Moreover, the HC50 at 1 h in data set [12] came to 220 µg/mL.
As to `CCCCCCNC(=O)C[N+](C)(C)CCCCCOc1ccc(/C=C/C(=O)c2c(OC)cc3c(c2O)C=CC(C)(C)O3)cc1.[Br-]`, the MIC in the data set with Staphylococcus aureus [1] came to 4 µg/mL; against Staphylococcus aureus [2], 2 µg/mL; with Staphylococcus aureus [3] it was 2 µg/mL; against Staphylococcus aureus [4], 2 µg/mL; against Staphylococcus aureus [5], 2 µg/mL; against Staphylococcus aureus [6] it was 2 µg/mL. For the same compound, the MIC against Staphylococcus aureus [7] came to 2 µg/mL; against Staphylococcus aureus [8], 4 µg/mL; against Staphylococcus aureus [9], 4 µg/mL; in the data set on Staphylococcus aureus [10] it was 4 µg/mL; with Staphylococcus aureus [11], 2 µg/mL. This compound gave an HC50 at 1 h in data set [12] of 245 µg/mL.
Turning to `CCCCN(CCCC)C(=O)C[N+](C)(C)CCCCOc1ccc(/C=C/C(=O)c2c(OC)cc3c(c2O)C=CC(C)(C)O3)cc1.[Br-]`, the MIC with Staphylococcus aureus [1] stood at 2 µg/mL; in the data set on Staphylococcus aureus [2] it was 1 µg/mL; in the data set with Staphylococcus aureus [3] it was 2 µg/mL; against Staphylococcus aureus [4], 1 µg/mL; in the data set on Staphylococcus aureus [5] it was 2 µg/mL; against Staphylococcus aureus [6], 2 µg/mL. Besides, the MIC against Staphylococcus aureus [7] was 1 µg/mL; against Staphylococcus aureus [8], 4 µg/mL; in the data set with Staphylococcus aureus [9], 4 µg/mL; against Staphylococcus aureus [10], 1 µg/mL; against Staphylococcus aureus [11], 2 µg/mL. The same compound showed an HC50 at 1 h in data set [12] of 466 µg/mL.
`COc1cc2c(c(O)c1C(=O)/C=C/c1ccc(OCCC[N+](C)(C)CC(=O)N(C(C)C)C(C)C)cc1)C=CC(C)(C)O2.[Br-]`: the MIC stood at 4 µg/mL with Staphylococcus aureus [1]; 2 µg/mL in the data set with Staphylococcus aureus [2]; 2 µg/mL in the data set with Staphylococcus aureus [3]; 1 µg/mL against Staphylococcus aureus [4]; 2 µg/mL against Staphylococcus aureus [5]; 1 µg/mL in the data set with Staphylococcus aureus [6]. The MIC against Staphylococcus aureus [7] was 1 µg/mL; with Staphylococcus aureus [8] it was 2 µg/mL; with Staphylococcus aureus [9], 2 µg/mL; against Staphylococcus aureus [10], 2 µg/mL; with Staphylococcus aureus [11], 4 µg/mL. This compound also returned an HC50 at 1 h in [12] of 158 µg/mL.
`CCCN(CCC)C(=O)C[N+](C)(C)CCCOc1ccc(/C=C/C(=O)c2c(OC)cc3c(c2O)C=CC(C)(C)O3)cc1.[Br-]`: the MIC in the data set with Staphylococcus aureus [1] worked out at 2 µg/mL; against Staphylococcus aureus [2], 2 µg/mL; in the data set with Staphylococcus aureus [3] it was 2 µg/mL; in the data set with Staphylococcus aureus [4] it was 1 µg/mL; in the data set on Staphylococcus aureus [5], 2 µg/mL; in the data set on Staphylococcus aureus [6], 2 µg/mL. The MIC worked out at 2 µg/mL in the data set with Staphylococcus aureus [7]; 1 µg/mL against Staphylococcus aureus [8]; 2 µg/mL in the data set on Staphylococcus aureus [9]; 1 µg/mL in the data set with Staphylococcus aureus [10]; 2 µg/mL against Staphylococcus aureus [11]. The HC50 at 1 h in [12] was 118 µg/mL.
As to `CCCCNC(=O)C[N+](C)(C)CCCCCOc1ccc(/C=C/C(=O)c2c(OC)cc3c(c2O)C=CC(C)(C)O3)cc1.[Br-]`, the MIC against Staphylococcus aureus [1] is 2 µg/mL; against Staphylococcus aureus [2], 2 µg/mL; against Staphylococcus aureus [3], 2 µg/mL; with Staphylococcus aureus [4], 2 µg/mL; against Staphylococcus aureus [5] it was 2 µg/mL; with Staphylococcus aureus [6], 1 µg/mL. The MIC with Staphylococcus aureus [7] stood at 1 µg/mL; with Staphylococcus aureus [8] it was 2 µg/mL; in the data set with Staphylococcus aureus [9], 2 µg/mL; in the data set with Staphylococcus aureus [10], 4 µg/mL; against Staphylococcus aureus [11], 2 µg/mL. In [12], this compound gave an HC50 at 1 h of 826 µg/mL.
As for `CCCCNC(=O)C[N+](C)(C)CCCOc1ccc(/C=C/C(=O)c2c(OC)cc3c(c2O)C=CC(C)(C)O3)cc1.[Br-]`, the MIC with Staphylococcus aureus [1] stood at 2 µg/mL; in the data set on Staphylococcus aureus [2], 2 µg/mL; in the data set with Staphylococcus aureus [3], 2 µg/mL; against Staphylococcus aureus [4], 1 µg/mL; in the data set with Staphylococcus aureus [5] it was 2 µg/mL; in the data set on Staphylococcus aureus [6], 2 µg/mL. The MIC with Staphylococcus aureus [7] turned out to be 2 µg/mL; in the data set on Staphylococcus aureus [8], 2 µg/mL; against Staphylococcus aureus [9] it was 2 µg/mL; in the data set with Staphylococcus aureus [10], 1 µg/mL; in the data set with Staphylococcus aureus [11], 4 µg/mL. Besides, the HC50 at 1 h in data set [12] is 58.3 µg/mL.
As for `COc1cc2c(c(O)c1C(=O)/C=C/c1ccc(O)cc1)C=CC(C)(C)O2` [XANTHOHUMOL C], the minimal inhibitory concentration (MIC) with Staphylococcus aureus [1], with Staphylococcus aureus [2], against Staphylococcus aureus [3], in the data set on Staphylococcus aureus [4], in the data set with Staphylococcus aureus [5] and against Staphylococcus aureus [6] was 4 µg/mL (≈ 11.4 µM) each time. Also, the MIC with Staphylococcus aureus [7] came to 8 µg/mL (≈ 22.7 µM); in the data set with Staphylococcus aureus [8], 4 µg/mL (≈ 11.4 µM); in the data set with Staphylococcus aureus [9], 4 µg/mL (≈ 11.4 µM); in the data set on Staphylococcus aureus [10], 8 µg/mL (≈ 22.7 µM); against Staphylococcus aureus [11], 4 µg/mL (≈ 11.4 µM). In data set [12], this compound came in with an HC50 at 1 h of 222 µg/mL.
